Results reported in patent US8163771B2, “11 β-HSD1 modulators” (Exelixis, Inc., priority 2008, dated 2012).

molecular target: T1, recombinant human 11 β-HSD1 (Homo sapiens, UniProt P28845); experiment: 11 β-HSD1 SPA Assay (Scintillation Proximity Assay); format: biochemical
T1 construct: made in house; host or cells: E. coli
In short: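 Scintillation proximity read-out of cortisol formed from 40 nM [3H]cortisone by purified recombinant human enzyme (30-100 nM, E. coli) with 1 mM NADPH, pH7.4, 2 hours at room temperature; beads with cortisol antibody and glycyrrhetinic acid stop the reaction, read next day. IC50 derived from inhibition normalised to background and maximal wells.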

T1 sequence (P28845 whole entry): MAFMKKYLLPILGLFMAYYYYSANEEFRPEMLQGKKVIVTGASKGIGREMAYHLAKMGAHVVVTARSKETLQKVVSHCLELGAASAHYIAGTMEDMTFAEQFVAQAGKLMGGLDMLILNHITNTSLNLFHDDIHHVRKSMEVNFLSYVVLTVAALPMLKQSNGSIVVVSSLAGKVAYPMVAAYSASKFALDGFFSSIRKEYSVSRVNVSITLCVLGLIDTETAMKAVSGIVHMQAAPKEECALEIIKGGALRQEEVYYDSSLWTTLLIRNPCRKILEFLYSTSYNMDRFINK

Molecule	IC50 [nM]
CC(C)(Oc1ccc(F)cc1Cl)C(=O)N[C@H]1C[C@H]2CC[C@@H](C1)N2c1ccc(C(=O)NCC(F)(F)F)cn1 [Example 52, 6-[3-endo-({2-[(2-chloro-4-fluorophenyl)oxy]-2-methylpropanoyl}amino)-8-azabicyclo[3.2.1]oct-8-yl]-N-(2,2,2-trifluoroethyl)pyridine-3-carboxamide]	< 200
CC(C)(Oc1cc(Cl)ccc1Cl)C(=O)N[C@H]1C[C@H]2CC[C@@H](C1)N2c1ccc(C(=O)NCC(F)(F)F)cn1 [Example 72, 6-[3-endo-({2-[(2,5-dichlorophenyl)oxy]-2-methylpropanoyl}amino)-8-azabicyclo[3.2.1]oct-8-yl]-N-(2,2,2-trifluoroethyl)pyridine-3-carboxamide]	< 200
CC(C)(Oc1ccc(Cl)cc1Cl)C(=O)N[C@H]1C[C@H]2CC[C@@H](C1)N2c1ccc(C(=O)NC2CC2)c(F)c1 [Example 130, N-cyclopropyl-4-[3-endo-({2-[(2,4-dichlorophenyl)oxy]-2-methylpropanoyl}amino)-8-azabicyclo[3.2.1]oct-8-yl]-2-fluorobenzamide]	< 200
CC(C)(Oc1ccc(F)cc1S(C)(=O)=O)C(=O)N[C@H]1C[C@H]2CC[C@@H](C1)N2c1ccc(C(=O)NCC(F)(F)F)cn1 [Example 296, 6-{3-endo-[(2-{[4-fluoro-2-(methylsulfonyl)phenyl]oxy}-2-methylpropanoyl)amino]-8-azabicyclo[3.2.1]oct-8-yl}-N-(2,2,2-trifluoroethyl)pyridine-3-carboxamide]	< 200
CC(C)(Oc1cc(C(F)(F)F)ccc1F)C(=O)N[C@H]1C[C@H]2CC[C@@H](C1)N2c1ccc(C(N)=O)cn1 [Example 189, 6-{3-endo-[(2-{[2-fIuoro-5-(trifluoromethyl)phenyl]oxy}-2-methylpropanoyl)amino]-8-azabicyclo[3.2.1]oct-8-yl}pyridine-3-carboxamide]	< 200
CC(C)(Oc1ccc(Cl)c2ccccc12)C(=O)N[C@H]1C[C@H]2CC[C@@H](C1)N2c1ccc(C(N)=O)cn1 [Example 297, 6-[3-endo-({2-[(4-chloronaphthalen-1-yl)oxy]-2-methylpropanoyl}amino)-8-azabicyclo[3.2.1]oct-8-yl]pyridine-3-carboxamide]	< 200
CC(C)(Oc1ccc(Cl)cc1Cl)C(=O)N[C@H]1C[C@H]2CC[C@@H](C1)N2c1ccc(NC(=O)CC(F)(F)F)cc1F [Example 139, N-{4-[3-endo-({2-[(2,4-dichlorophenyl)oxy]-2-methylpropanoyl}amino)-8-azabicyclo[3.2.1]oct-8-yl]-3-fluorophenyl}-3,3,3-trifluoropropanamide]	< 200
N-(2,2-difluoroethyl)-6- [3-endo-({2-[2-fluoro-4- (2-hydroxypropan-2- yl)phenoxy]-2- methylpropanoyl}amino)- 8-azabicyclo[3.2.1]oct- 8-yl]pyridine-3- carboxamide [Example 305]	< 200
C[C@H](NC(=O)c1ccc(N2C3CCC2CC(NC(=O)C(C)(C)Oc2ccc(F)cc2F)C3)nc1)C(F)(F)F (stereo partly drawn) [Example 431, 6-(3-endo-{[2-(2,4-difluorophenoxy)-2-methylpropanoyl]amino}-8-azabicyclo[3.2.1]oct-8-yl)-N-[(2S)-1,1,1-trifluoropropan-2-yl]pyridine-3-carboxamide]	< 200
CC(C)(Oc1ccc(C#N)cc1)C(=O)N[C@H]1C[C@H]2CC[C@@H](C1)N2c1ccc(C(=O)NC2CC2)cn1 [Example 38, 6-[3-endo-({2-[(4-cyanophenyl)oxy]-2-methylpropanoyl}amino)-8-azabicyclo[3.2.1]oct-8-yl]-N-cyclopropylpyridine-3-carboxamide]	< 200
CC(C)(Oc1cccc2cc[nH]c12)C(=O)N[C@H]1C[C@H]2CC[C@@H](C1)N2c1ccc(C(=O)NCC(F)(F)F)cn1 [Example 390, 6-(3-endo-{[2-(1H-indol-7-yloxy)-2-methylpropanoyl]amino}-8-azabicyclo[3.2.1]oct-8-yl)-N-(2,2,2-trifluoroethyl)pyridine-3-carboxamide]	< 200
CC(C)(Oc1ccccc1S(C)(=O)=O)C(=O)N[C@H]1C[C@H]2CC[C@@H](C1)N2c1ccc(C(=O)NCC(F)(F)F)cn1 [Example 300, 6-{3-endo-[(2-methyl-2-{[2-(methylsulfonyl)phenyl]oxy}-propanoyl)amino]-8-azabicyclo[3.2.1]oct-8-yl}-N-(2,2,2-trifluoroethyl)pyridine-3-carboxamide]	< 2000
CC(C)(Oc1ccc(F)c(Cl)c1Cl)C(=O)N[C@H]1C[C@H]2CC[C@@H](C1)N2c1ccc(C(=O)NCC(F)F)cn1 [Example 441, 6-(3-endo-{[2-(2,3-dichloro-4-fluorophenoxy)-2-methylpropanoyl]amino}-8-azabicyclo[3.2.1]oct-8-yl)-N-(2,2-difluoroethyl)pyridine-3-carboxamide]	< 200
CC(C)(Oc1ccc(Cl)cc1S(C)(=O)=O)C(=O)N[C@H]1C[C@H]2CC[C@@H](C1)N2c1ccc(C(=O)NCC(F)F)cn1 [Example 422, 6-[3-endo-({2-[4-chloro-2-(methylsulfonyl)phenoxy]-2-methylpropanoyl}amino)-8-azabicyclo[3.2.1]oct-8-yl]-N-(2,2-difluoroethyl)pyridine-3-carboxamide]	< 200
CC(C)NC(=O)c1ccc(N2[C@@H]3CC[C@H]2C[C@@H](NC(=O)C(C)(C)Oc2ccc(Cl)c(Cl)c2)C3)nc1 [Example 79, 6-[3-endo-({2-[(3,4-dichlorophenyl)oxy]-2-methylpropanoyl}amino)-8-azabicycio[3.2.1]oct-8-yl]-N-(1-methylethyl)pyridine-3-carboxamide]	< 200
CC(C)(C(=O)N[C@H]1C[C@H]2CC[C@@H](C1)N2c1ccc(C(=O)NC2CC2)cn1)c1cccc(Cl)c1 [Example 25, 6-(3-endo-{[2-(3-chlorophenyl)-2-methylpropanoyl]amino}-8-azabicyclo[3.2.1]oct-8-yl)-N-cyclopropylpyridine-3-carboxamide]	< 200
O=C(N[C@H]1C[C@H]2CC[C@@H](C1)N2c1ncccc1C(F)(F)F)C1(c2ccc(Cl)cc2)CC1 [Example 5]	< 2000
CC(C)(Oc1ccc(Cl)cc1OC(F)(F)F)C(=O)NC1CC2CCC(C1)N2c1ccc(C(=O)NCC(O)C(F)(F)F)cn1 (stereo not drawn) [Example 448, 6-[3-endo-({2-[4-chloro-2-(trifluoromethoxy)phenoxy]-2-methylpropanoyl}amino)-8-azabicyclo[3.2.1]oct-8-yl]-N-(3,3,3-trifluoro-2-hydroxypropyl)pyridine-3-carboxamide]	< 200
CC(C)(Oc1cc(F)ccc1Cl)C(=O)N[C@H]1C[C@H]2CC[C@@H](C1)N2c1ccc(C(=O)NCC(F)(F)F)cn1 [Example 73, 6-[3-endo-({2-[(2-chloro-5-fluorophenyl)oxy]-2-methylpropanoyl}amino)-8-azabicyclo[3.2.1]oct-8-yl]-N-(2,2,2-trifluoroethyl)pyridine-3-carboxamide]	< 200
CC(C)(Oc1ccc(Cl)cc1Cl)C(=O)N[C@H]1C[C@H]2CC[C@@H](C1)N2c1ccc(NS(C)(=O)=O)cn1 [Example 101, 2-[(2,4-dichlorophenyl)oxy]-2-methyl-N-(8-{5-[(methylsulfonyl)amino]pyridin-2-yl}-8-azabicyclo[3.2.1]oct-3-endo-yl)propanamide]	< 200
CN1CCN(CCOc2cc(OC(C)(C)C(=O)N[C@H]3C[C@H]4CC[C@@H](C3)N4c3ccc(C(=O)NCC(F)(F)F)cn3)c(Cl)cc2Cl)CC1 [Example 406, 6-(3-endo-(2-(2,4-dichloro-5-(2-(4-methylpiperazin-1-yl)ethoxy)phenoxy)-2-methylpropanamido)-8-azabicyclo[3.2.1]octan-8-yl)-N-(2,2,2-trifluoroethyl)nicotinamide]	< 200
CC(C)(Oc1ccc(Cl)cc1Cl)C(=O)N[C@H]1C[C@H]2CC[C@@H](C1)N2c1cc(C(=O)NCC(F)(F)F)ccn1 [Example 171, 2-[3-endo-({2-[(2,4-dichlorophenyl)oxy]-2-methylpropanoyl}amino)-8-azabicyclo[3.2.1]oct-8-yl]-N-(2,2,2-trifluoroethyl)pyridine-4-carboxamide]	< 2000
CC(C)(Oc1ccc(Cl)cc1Cl)C(=O)NC1CC2CCC(C1)N2c1ncc(NC(=O)CC(F)(F)F)cc1Cl (stereo not drawn) [Example 278, N-{5-chloro-6-[3-endo-({2-[(2,4-dichlorophenyl)oxy]-2-methylpropanoyl}amino)-8-azabicyclo[3.2.1]oct-8-yl]pyridin-3-yl}-3,3,3-trifluoropropanamide]	< 2000
CC(C)(Oc1ccc(F)cc1Cl)C(=O)N[C@H]1C[C@H]2CC[C@@H](C1)N2c1ccc(C(=O)NCC(F)F)cn1 [Example 371, 6-(3-endo-{[2-(2-chloro-4-fluorophenoxy)-2-methylpropanoyl]amino}-8-azabicyclo[3.2.1]oct-8-yl)-N-(2,2-difluoroethyl)pyridine-3-carboxamide]	< 200
CC(C)(Oc1ccc(Cl)cc1OC(F)F)C(=O)N[C@H]1C[C@H]2CC[C@@H](C1)N2c1ccc(C(=O)NCC(F)F)cn1 [Example 469, 6-[3-endo-({2-[4-chloro-2-(difluoromethoxy)phenoxy]-2-methylpropanoyl}amino)-8-azabicyclo[3.2.1]oct-8-yl]-N-(2,2-difluoroethyl)pyridine-3-carboxamide]	< 200
CC(C)(Oc1ccc(F)cc1C(F)(F)F)C(=O)N[C@H]1C[C@H]2CC[C@@H](C1)N2c1ccc(C(=O)NCC(F)(F)F)cn1 [Example 145, 6-{3-endo-[(2-{[4-fluoro-2-(trifluoromethyl)phenyl]oxy}-2-methylpropanoyl)amino]-8-azabicyclo[3.2.1]oct-8-yl}-N-(2,2,2-trifluoroethyl)pyridine-3-carboxamide]	< 200
CC(C)(Oc1ccc(F)cc1Cl)C(=O)NC1CC2CCC(C1)N2c1ccc(C(=O)NC2CC2(F)F)cn1 (stereo not drawn) [Example 349, 6-(3-endo-{[2-(2-chloro-4-fluorophenoxy)-2-methylpropanoyl]amino}-8-azabicyclo[3.2.1]oct-8-yl)-N-(2,2-difluorocyclopropyl)pyridine-3-carboxamide]	< 200
